Data from ChEMBL document CHEMBL4699664, “Rational Design of 2-Chloroadenine Derivatives as Highly Selective Phosphodiesterase 8A Inhibitors” (J Med Chem, 2020).
Converted amounts (≈) assume the structure as drawn. The source made the active and inactive calls. The calls are words filed in the database; no cut-off is given here.

Experiments:
Cytochrome P450 3A4 = Cytochrome P450 3A4 (Homo sapiens, UniProt P08684); assay: Inhibition of CYP3A4 in human liver microsomes using midazolam as substrate in presence of NADPH; assay type: ADME
Mus musculus [1] = assay: Anti-VaD activity against UCCAO-induced spatial memory deficient C57BL/6J mouse model assessed as improvement in spatial learning and memory by measuring increased the frequency of platform site crossing at 3 mg/kg, po administered for 21 days by Morris water maze test; assay type: functional, organism-based; details: time 21.0 day
Cytochrome P450 2C9 = Cytochrome P450 2C9 (Homo sapiens, UniProt P11712); assay: Inhibition of CYP2C9 in human liver microsomes in presence of NADPH; assay type: ADME
Cytochrome P450 2C9, sequence (P11712 whole entry): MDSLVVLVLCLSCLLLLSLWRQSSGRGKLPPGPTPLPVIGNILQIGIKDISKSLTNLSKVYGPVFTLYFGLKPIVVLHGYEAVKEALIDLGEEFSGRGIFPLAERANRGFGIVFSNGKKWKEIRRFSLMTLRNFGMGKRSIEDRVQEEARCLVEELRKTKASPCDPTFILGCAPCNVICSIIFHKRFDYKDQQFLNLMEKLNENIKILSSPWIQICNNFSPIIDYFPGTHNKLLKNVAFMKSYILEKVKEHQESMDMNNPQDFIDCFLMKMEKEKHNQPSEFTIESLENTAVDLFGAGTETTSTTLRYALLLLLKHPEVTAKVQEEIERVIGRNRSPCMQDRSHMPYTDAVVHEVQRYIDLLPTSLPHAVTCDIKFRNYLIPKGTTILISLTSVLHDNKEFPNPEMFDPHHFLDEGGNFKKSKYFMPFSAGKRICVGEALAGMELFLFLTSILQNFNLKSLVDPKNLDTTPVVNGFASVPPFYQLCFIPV

[2] = Protein binding in human plasma; assay type: ADME, cell-free; details: read-out: PPB (converted)
Mus musculus [3] = assay: Anti-VaD activity against UCCAO-induced spatial memory deficient C57BL/6J mouse model assessed as improvement in spatial learning and memory by measuring increased the residence time in the platform area at 3 mg/kg, po administered for 21 days by Morris water maze test; assay type: functional, organism-based; details: time 21.0 day
[4] = Cmax in Sprague-Dawley rat at 2.5 mg/kg, iv measured upto 24 hrs by LC-MS/MS analysis; assay type: ADME, organism-based; parameters: route intravenous, dose 2.5 mg/kg, time <=24; details: in vivo
[5] = biological target: cGMP-inhibited 3',5'-cyclic phosphodiesterase 3A (Homo sapiens, UniProt Q14432); assay: Inhibition of PDE3A (679-1087 residues) (unknown origin) expressed in Escherichia coli BL21 using [3H]-cAMP substrate incubated for 15 mins by liquid scintillation counting method
cGMP-inhibited 3',5'-cyclic phosphodiesterase 3A, sequence (Q14432 whole entry, the tested form may be a part): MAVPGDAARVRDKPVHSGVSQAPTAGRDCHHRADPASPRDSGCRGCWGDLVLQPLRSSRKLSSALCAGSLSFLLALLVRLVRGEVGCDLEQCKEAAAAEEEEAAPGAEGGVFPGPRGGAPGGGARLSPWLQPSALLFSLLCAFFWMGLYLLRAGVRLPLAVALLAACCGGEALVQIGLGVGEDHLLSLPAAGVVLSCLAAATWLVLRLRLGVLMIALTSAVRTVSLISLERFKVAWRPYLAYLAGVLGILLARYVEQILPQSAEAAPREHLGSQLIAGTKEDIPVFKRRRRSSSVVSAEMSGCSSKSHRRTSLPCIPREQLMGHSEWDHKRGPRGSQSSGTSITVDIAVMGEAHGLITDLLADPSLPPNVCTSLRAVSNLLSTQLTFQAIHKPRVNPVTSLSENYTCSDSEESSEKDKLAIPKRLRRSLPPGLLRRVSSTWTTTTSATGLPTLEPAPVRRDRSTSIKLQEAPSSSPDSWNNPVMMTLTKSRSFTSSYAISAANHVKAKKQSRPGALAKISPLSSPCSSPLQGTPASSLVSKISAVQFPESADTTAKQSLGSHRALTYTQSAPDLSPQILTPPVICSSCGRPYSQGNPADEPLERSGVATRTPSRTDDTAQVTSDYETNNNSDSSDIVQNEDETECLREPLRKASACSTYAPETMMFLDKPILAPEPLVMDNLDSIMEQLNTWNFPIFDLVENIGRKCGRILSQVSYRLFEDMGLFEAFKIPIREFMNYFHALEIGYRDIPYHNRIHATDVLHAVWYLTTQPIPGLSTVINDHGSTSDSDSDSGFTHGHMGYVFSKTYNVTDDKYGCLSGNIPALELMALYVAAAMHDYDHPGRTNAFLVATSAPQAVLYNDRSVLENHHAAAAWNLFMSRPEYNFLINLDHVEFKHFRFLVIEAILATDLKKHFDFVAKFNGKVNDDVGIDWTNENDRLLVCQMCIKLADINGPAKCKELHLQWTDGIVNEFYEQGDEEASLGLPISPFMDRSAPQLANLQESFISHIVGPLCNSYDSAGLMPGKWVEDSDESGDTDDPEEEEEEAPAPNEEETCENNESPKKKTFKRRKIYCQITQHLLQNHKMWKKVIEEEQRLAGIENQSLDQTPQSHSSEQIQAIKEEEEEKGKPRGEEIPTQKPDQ

[6] = Half life in Sprague-Dawley rat at 10 mg/kg, po measured upto 24 hrs by LC-MS/MS analysis; assay type: ADME, organism-based; details: in vivo
[7] = biological target: High affinity cGMP-specific 3',5'-cyclic phosphodiesterase 9A (Homo sapiens, UniProt O76083); assay: Inhibition of PDE9A2 (181-506 residues) (unknown origin) expressed in Escherichia coli BL21 using [3H]-cAMP substrate incubated for 15 mins by liquid scintillation counting method
High affinity cGMP-specific 3',5'-cyclic phosphodiesterase 9A, sequence (O76083 whole entry, the tested form may be a part): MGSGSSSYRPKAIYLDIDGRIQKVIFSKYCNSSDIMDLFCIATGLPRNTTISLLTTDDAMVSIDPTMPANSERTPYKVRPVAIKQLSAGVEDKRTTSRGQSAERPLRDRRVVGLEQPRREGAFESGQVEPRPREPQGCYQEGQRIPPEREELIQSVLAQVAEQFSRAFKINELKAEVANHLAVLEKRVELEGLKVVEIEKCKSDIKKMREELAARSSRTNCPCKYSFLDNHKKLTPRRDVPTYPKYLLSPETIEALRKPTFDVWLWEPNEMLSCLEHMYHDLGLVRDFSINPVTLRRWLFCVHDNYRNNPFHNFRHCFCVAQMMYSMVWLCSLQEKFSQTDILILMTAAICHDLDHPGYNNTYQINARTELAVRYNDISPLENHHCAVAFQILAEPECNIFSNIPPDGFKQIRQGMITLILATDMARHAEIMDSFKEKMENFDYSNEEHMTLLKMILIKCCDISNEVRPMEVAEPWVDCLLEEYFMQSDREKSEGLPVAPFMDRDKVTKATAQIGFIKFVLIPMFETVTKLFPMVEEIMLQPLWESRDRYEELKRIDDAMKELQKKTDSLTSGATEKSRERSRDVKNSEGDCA

Mus musculus [8] = assay: Anti-VaD activity against UCCAO-induced spatial memory deficient C57BL/6J mouse model assessed as improvement in spatial learning and memory by measuring increase in latency time at 3 mg/kg, po administered for 21 days by passive avoidance test; assay type: functional, organism-based; details: time 21.0 day
[9] = Half life in Sprague-Dawley rat at 2.5 mg/kg, iv measured upto 24 hrs by LC-MS/MS analysis; assay type: ADME, organism-based; details: in vivo
[10] = AUC (0 to t) in Sprague-Dawley rat at 10 mg/kg, po measured upto 24 hrs by LC-MS/MS analysis; assay type: ADME, organism-based; parameters: route oral, dose 10 mg/kg, time <=24; details: in vivo
[11] = AUC (0 to t) in Sprague-Dawley rat at 2.5 mg/kg, iv measured upto 24 hrs by LC-MS/MS analysis; assay type: ADME, organism-based; parameters: route intravenous, dose 2.5 mg/kg, time <=24; details: in vivo
[12] = Aqueous solubility of compound at pH 7.3 by HPLC analysis; assay type: physicochemical; details: aqueous medium
[13] = Cmax in Sprague-Dawley rat at 10 mg/kg, po measured upto 24 hrs by LC-MS/MS analysis; assay type: ADME, organism-based; parameters: route oral, dose 10 mg/kg, time <=24; details: in vivo
[14] = biological target: High affinity 3',5'-cyclic-AMP phosphodiesterase 7A (Homo sapiens, UniProt Q13946); assay: Inhibition of PDE7A1 (130-482 residues) (unknown origin) expressed in Escherichia coli BL21 using [3H]-cAMP substrate incubated for 15 mins by liquid scintillation counting method
Mus musculus [15] = assay: Anti-VaD activity against UCCAO-induced spatial memory deficient C57BL/6J mouse model assessed as improvement in spatial learning and memory by measuring reduction in escape latency at 3 mg/kg, po administered for 21 days by Morris water maze test; assay type: functional, organism-based; details: time 21.0 day
[16] = Lipophilicity, log P of the compound; assay type: physicochemical; details: octanol/water
Mus musculus [17] = assay: Anti-VaD activity against UCCAO-induced spatial memory deficient C57BL/6J mouse model assessed as improvement in spatial learning and memory by measuring decrease in error rate at 3 mg/kg, po administered for 21 days by passive avoidance test; assay type: functional, organism-based; details: time 21.0 day
Cytochrome P450 1A2 = biological target: T1, Cytochrome P450 1A2 (Homo sapiens, UniProt P05177); assay: Inhibition of CYP1A2 in human liver microsomes in presence of NADPH; assay type: ADME
T1 sequence (P05177 whole entry): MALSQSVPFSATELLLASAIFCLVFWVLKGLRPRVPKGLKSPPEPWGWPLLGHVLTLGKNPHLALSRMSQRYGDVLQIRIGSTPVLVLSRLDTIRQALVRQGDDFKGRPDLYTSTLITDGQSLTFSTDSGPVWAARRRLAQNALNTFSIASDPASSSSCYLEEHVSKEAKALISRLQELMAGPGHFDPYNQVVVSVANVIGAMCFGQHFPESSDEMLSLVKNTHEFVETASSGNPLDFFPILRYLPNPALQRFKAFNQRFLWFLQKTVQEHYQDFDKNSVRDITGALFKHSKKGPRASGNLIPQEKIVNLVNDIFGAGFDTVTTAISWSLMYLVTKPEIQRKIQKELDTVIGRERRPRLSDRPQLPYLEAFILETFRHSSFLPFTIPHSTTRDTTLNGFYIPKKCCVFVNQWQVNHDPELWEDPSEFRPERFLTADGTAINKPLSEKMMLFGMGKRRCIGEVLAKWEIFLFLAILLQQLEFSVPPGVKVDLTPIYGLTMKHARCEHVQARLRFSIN

[18] = Inhibition of PDE5A1 (535-860 residues) (unknown origin) expressed in Escherichia coli BL21 using [3H]-cAMP substrate incubated for 15 mins by liquid scintillation counting method; parameters: species or system Homo sapiens
[19] = biological target: Voltage-gated inwardly rectifying potassium channel KCNH2 (Homo sapiens, UniProt Q12809); assay: Inhibition of human ERG expressed in CHO cells by patch clamp method; assay type: cell-based
[20] = Oral bioavailability in Sprague-Dawley rat at 10 mg/kg measured upto 24 hrs by LC-MS/MS analysis; assay type: ADME, organism-based; details: in vivo
[21] = biological target: Dual specificity calcium/calmodulin-dependent 3',5'-cyclic nucleotide phosphodiesterase 1B (Homo sapiens, UniProt Q01064); assay: Inhibition of PDE1B (146-506 residues) (unknown origin) expressed in Escherichia coli BL21 using [3H]-cAMP substrate incubated for 15 mins by liquid scintillation counting method
Dual specificity calcium/calmodulin-dependent 3',5'-cyclic nucleotide phosphodiesterase 1B, sequence (Q01064 whole entry, the tested form may be a part): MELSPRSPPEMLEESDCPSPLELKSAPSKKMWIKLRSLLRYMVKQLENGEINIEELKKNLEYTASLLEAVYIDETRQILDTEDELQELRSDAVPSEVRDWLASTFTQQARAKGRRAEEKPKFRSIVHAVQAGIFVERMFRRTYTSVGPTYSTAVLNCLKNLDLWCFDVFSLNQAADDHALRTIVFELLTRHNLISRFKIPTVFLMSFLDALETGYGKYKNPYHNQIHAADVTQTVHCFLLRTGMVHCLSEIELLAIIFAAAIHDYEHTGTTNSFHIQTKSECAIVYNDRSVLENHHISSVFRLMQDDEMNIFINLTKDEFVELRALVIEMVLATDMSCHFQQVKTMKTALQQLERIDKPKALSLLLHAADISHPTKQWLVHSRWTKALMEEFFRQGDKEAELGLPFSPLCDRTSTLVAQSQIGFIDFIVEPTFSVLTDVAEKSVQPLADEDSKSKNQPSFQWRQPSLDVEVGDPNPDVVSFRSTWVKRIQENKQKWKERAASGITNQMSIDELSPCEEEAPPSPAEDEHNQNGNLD

[22] = Tmax in Sprague-Dawley rat at 2.5 mg/kg, iv measured upto 24 hrs by LC-MS/MS analysis; assay type: ADME, organism-based; details: in vivo
[23] = MRT (0 to t) in Sprague-Dawley rat at 10 mg/kg, po measured upto 24 hrs by LC-MS/MS analysis; assay type: ADME, organism-based; details: in vivo
[24] = Tmax in Sprague-Dawley rat at 10 mg/kg, po measured upto 24 hrs by LC-MS/MS analysis; assay type: ADME, organism-based; details: in vivo
[25] = biological target: Dual 3',5'-cyclic-AMP and -GMP phosphodiesterase 11A (Homo sapiens, UniProt Q9HCR9); assay: Inhibition of PDE11A (588-911 residues) (unknown origin) expressed in Escherichia coli BL21 using [3H]-cAMP substrate incubated for 15 mins by liquid scintillation counting method
[26] = Dissociation constant, pKa of the compound; assay type: physicochemical
[27] = MRT (0 to t) in Sprague-Dawley rat at 2.5 mg/kg, iv measured upto 24 hrs by LC-MS/MS analysis; assay type: ADME, organism-based; details: in vivo
[28] = Effective permeability of compound by PAMPA-BBB assay; assay type: ADME; details: read-out: permeability
Cytochrome P450 2C19 = Cytochrome P450 2C19 (Homo sapiens, UniProt P33261); assay: Inhibition of CYP2C19 in human liver microsomes in presence of NADPH; assay type: ADME
Cytochrome P450 2C19, sequence (P33261 whole entry): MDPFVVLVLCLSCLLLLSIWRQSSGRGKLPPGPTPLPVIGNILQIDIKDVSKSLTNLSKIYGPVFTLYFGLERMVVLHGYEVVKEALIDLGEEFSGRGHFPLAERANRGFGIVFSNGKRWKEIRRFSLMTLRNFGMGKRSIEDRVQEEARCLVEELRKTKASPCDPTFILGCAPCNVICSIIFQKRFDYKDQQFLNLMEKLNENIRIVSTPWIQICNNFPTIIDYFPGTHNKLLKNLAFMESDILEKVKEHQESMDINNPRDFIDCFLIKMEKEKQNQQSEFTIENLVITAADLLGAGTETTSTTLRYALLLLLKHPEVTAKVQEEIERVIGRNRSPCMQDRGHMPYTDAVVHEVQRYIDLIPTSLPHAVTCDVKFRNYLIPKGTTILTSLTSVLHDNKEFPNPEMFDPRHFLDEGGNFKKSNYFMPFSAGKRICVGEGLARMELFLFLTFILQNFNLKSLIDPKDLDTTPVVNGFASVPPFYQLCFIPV

[29] = AUC (0 to infinity) in Sprague-Dawley rat at 2.5 mg/kg, iv measured upto 24 hrs by LC-MS/MS analysis; assay type: ADME, organism-based; parameters: route intravenous, dose 2.5 mg/kg, time <=24; details: in vivo
[30] = AUC (0 to infinity) in Sprague-Dawley rat at 10 mg/kg, po measured upto 24 hrs by LC-MS/MS analysis; assay type: ADME, organism-based; parameters: route oral, dose 10 mg/kg, time <=24; details: in vivo
Cytochrome P450 2D6 = Cytochrome P450 2D6 (Homo sapiens, UniProt P10635); assay: Inhibition of CYP2D6 in human liver microsomes in presence of NADPH; assay type: ADME
Cytochrome P450 2D6, sequence (P10635 whole entry, the tested form may be a part): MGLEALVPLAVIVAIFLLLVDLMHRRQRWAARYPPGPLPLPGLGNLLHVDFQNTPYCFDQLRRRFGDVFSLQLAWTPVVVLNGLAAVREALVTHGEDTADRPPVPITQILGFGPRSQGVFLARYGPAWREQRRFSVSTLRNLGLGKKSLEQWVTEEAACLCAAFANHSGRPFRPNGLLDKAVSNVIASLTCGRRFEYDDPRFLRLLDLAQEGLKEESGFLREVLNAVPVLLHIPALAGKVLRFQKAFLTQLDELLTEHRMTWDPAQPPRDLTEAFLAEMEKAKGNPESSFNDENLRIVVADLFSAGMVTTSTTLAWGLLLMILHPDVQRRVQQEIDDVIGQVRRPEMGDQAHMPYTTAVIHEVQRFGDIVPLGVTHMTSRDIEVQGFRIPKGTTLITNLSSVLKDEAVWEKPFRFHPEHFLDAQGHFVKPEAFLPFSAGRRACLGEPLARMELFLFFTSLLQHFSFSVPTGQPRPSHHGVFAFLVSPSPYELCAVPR

[31] = biological target: T2, High affinity cAMP-specific and IBMX-insensitive 3',5'-cyclic phosphodiesterase 8A (Homo sapiens, UniProt O60658); assay: Inhibition of PDE8A1 (480 to 820 residues) (unknown origin) expressed in Escherichia coli BL21 using [3H]-cAMP substrate incubated for 15 mins by liquid scintillation counting method
T2 sequence (O60658 whole entry, the tested form may be a part): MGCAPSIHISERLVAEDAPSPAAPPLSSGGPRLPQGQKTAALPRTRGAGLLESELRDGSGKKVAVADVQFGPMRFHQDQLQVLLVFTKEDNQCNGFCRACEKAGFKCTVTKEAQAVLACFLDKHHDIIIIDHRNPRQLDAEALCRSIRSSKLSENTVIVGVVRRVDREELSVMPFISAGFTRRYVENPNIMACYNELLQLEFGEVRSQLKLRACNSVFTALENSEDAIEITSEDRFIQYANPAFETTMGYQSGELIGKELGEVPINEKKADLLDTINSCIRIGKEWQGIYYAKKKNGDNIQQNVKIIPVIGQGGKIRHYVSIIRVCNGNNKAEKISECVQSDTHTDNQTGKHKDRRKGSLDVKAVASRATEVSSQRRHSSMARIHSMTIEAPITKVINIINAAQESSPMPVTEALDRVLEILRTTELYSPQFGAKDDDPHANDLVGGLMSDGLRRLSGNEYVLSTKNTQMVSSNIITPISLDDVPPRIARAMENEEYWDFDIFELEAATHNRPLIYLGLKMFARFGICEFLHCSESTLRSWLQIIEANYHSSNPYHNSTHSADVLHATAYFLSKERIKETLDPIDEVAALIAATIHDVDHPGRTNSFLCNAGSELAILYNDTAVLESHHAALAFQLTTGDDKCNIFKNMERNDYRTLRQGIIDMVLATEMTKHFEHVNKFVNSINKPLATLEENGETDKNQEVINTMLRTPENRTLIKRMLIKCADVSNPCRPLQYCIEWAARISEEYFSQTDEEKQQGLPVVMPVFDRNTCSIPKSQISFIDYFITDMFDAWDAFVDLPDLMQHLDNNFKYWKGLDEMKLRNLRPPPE

[32] = biological target: T2, High affinity cAMP-specific and IBMX-insensitive 3',5'-cyclic phosphodiesterase 8A; assay: Inhibition of PDE8A1 (480 to 820 residues) (unknown origin) expressed in Escherichia coli BL21 using [3H]-cAMP substrate at 1 uM incubated for 15 mins by liquid scintillation counting method relative to control
Mus musculus [33] = assay: Anti-VaD activity against UCCAO-induced spatial memory deficient C57BL/6J mouse model assessed as improvement in spatial learning and memory by measuring decrease in error rate at 1 mg/kg, po administered for 21 days by passive avoidance test; assay type: functional, organism-based; details: time 21.0 day
Mus musculus [34] = assay: Anti-VaD activity against UCCAO-induced spatial memory deficient C57BL/6J mouse model assessed as improvement in spatial learning and memory by measuring increased the frequency of platform site crossing at 1 mg/kg, po administered for 21 days by Morris water maze test; assay type: functional, organism-based; details: time 21.0 day
Mus musculus [35] = assay: Anti-VaD activity against UCCAO-induced spatial memory deficient C57BL/6J mouse model assessed as improvement in spatial learning and memory by measuring increase in latency time at 1 mg/kg, po administered for 21 days by passive avoidance test; assay type: functional, organism-based; details: time 21.0 day
Mus musculus [36] = assay: Anti-VaD activity against UCCAO-induced spatial memory deficient C57BL/6J mouse model assessed as improvement in spatial learning and memory by measuring reduction in escape latency at 1 mg/kg, po administered for 21 days by Morris water maze test; assay type: functional, organism-based; details: time 21.0 day
Mus musculus [37] = assay: Anti-VaD activity against UCCAO-induced spatial memory deficient C57BL/6J mouse model assessed as improvement in spatial learning and memory by measuring increased the residence time in the platform area at 1 mg/kg, po administered for 21 days by Morris water maze test; assay type: functional, organism-based; details: time 21.0 day

With `C[C@@H](c1cc(OCC(F)F)ccn1)n1cnc2c(N)nc(Cl)nc21` the IC50 (Cytochrome P450 3A4) was over 25 µM, the Activity (Mus musculus [1]) was “Active” and the IC50 (Cytochrome P450 2C9) was over 25 µM. The fraction unbound [2] was 0.22, the Activity (Mus musculus [3]) was “Active” and the Cmax [4] was 2190 ng/mL. It also gave an IC50 [5] of over 10 µM, a half-life [6] of 2.82 h and an IC50 [7] of over 10 µM. The Activity (Mus musculus [8]) was “Active”, the half-life [9] was 2.36 h and the AUC(0-t) at 24 h [10] was 17500 ng·h/mL. It also gave an AUC(0-t) at 24 h [11] of 9410 ng·h/mL, a solubility [12] of 108 µg/mL (≈ 304 µM) and a Cmax [13] of 1940 ng/mL. The IC50 [14] was over 10 µM, the Activity (Mus musculus [15]) was “Active” and the logP [16] was 3.84. For the same compound, the Activity (Mus musculus [17]) was “Active”, the IC50 (Cytochrome P450 1A2) was over 25 µM and the IC50 [18] was over 10 µM. The IC50 [19] was 18 µM, the bioavailability [20] was 47% and the IC50 [21] was over 10 µM. The Tmax [22] was 8.4 min, the MRT last at 24 h [23] was 7.2 h and the Tmax [24] was 4 h. It also gave an IC50 [25] of over 10 µM, a pKa [26] of 3.69 and an MRT last at 24 h [27] of 4.48 h. The Papp [28] was 6 ×10⁻⁶ cm/s, the IC50 (Cytochrome P450 2C19) was over 25 µM and the AUC(0-inf) [29] was 9420 ng·h/mL. It also gave an AUC(0-inf) [30] of 17600 ng·h/mL and an IC50 (Cytochrome P450 2D6) of over 25 µM.

In the case of `Nc1nc(Cl)nc2c1ncn2Cc1cc(OCC(F)F)ccn1`, the IC50 [31] is reported as 0.36 µM.

Compound `Nc1nc(Cl)nc2c1ncn2Cc1ccccn1` has an inhibition [32] of 24%.

In the case of `Cc1cccc(Cn2cnc3c(N)nc(Cl)nc32)n1`, the inhibition [32] is reported as 14%.

With `COc1cc2c(cc1OC)C(=O)C(CC1CCN(Cc3ccccc3)CC1)C2` (stereo not drawn) the Activity (Mus musculus [33]) was “Active”, the Activity (Mus musculus [34]) was “Active” and the Activity (Mus musculus [35]) was “Active”. For the same compound, the Activity (Mus musculus [36]) was “Active” and the Activity (Mus musculus [37]) was “Active”.
